The source of these data is article PMC11224556, “Next-generation of BBQ analogues that selectively target breast cancer” (Frontiers in Chemistry, 2024).

Test [1] relates to broad panel of cancer cell lines and non-cancer breast cell line MCF10A. The conditions noted are these: cited from earlier work.
The test system is the same in test [2]. Briefly: MTT growth inhibition: GI50 ranges and selectivity across the cell line panel. The class given is cell-based, human. The text has this:
(§1) Each BBQ analogue, 2-14 was screened for their growth inhibition ability (GI50) in a broad panel of cancer cell lines and a non-cancer breast cell line (MCF10A), using the MTT growth inhibition assay (Table 1) ([Baker et al., 2021b]). The cancer panel comprised HT29 (colorectal), U87 (brain), SJ-G2 (brain), A2780 (ovary), Du145 (prostate), BE2-C (neuronal), MIA (pancreas), H460 (lung, ER+), A431 (vulva, ER+ (estrogen receptor positive)), and a wide selection of breast cancer cell lines with varying receptor status including MCF-7 (ER + luminal A), T47D (ER/PR+ (progesterone receptor positive)luminal A), ZR-75-1 (ER/PR + luminal A), BT-474 (ER/PR/HER2+ luminal B), SKBR-3 (HER2+), MDA-MB-468, BT20, and MDA-MB-231 (basal, triple negative (TN) for ER, PR, and HER2).
(§2) Stock solutions were prepared as follows and stored as 20 mM DMSO solutions at −20 °C. All cell lines were cultured in a humidified atmosphere 5% CO2 at 37 °C. The cancer cell lines were maintained in Dulbecco’s modified Eagle’s medium (DMEM) (Trace Biosciences, Australia) supplemented with 10% foetal bovine serum (FBS), 10 mM sodium bicarbonate, penicillin (100 IU/mL), streptomycin (100 μg/mL), and glutamine (4 mM). The non-cancer MCF10A cell line was cultured in DMEM:F12 (1:1) cell culture media, 5% heat inactivated horse serum, supplemented with penicillin (50 IU/mL), streptomycin (50 μg/mL), 20 mM Hepes, L-glutamine (2 mM), epidermal growth factor (20 ng/mL), hydrocortisone (500 ng/mL), cholera toxin (100 ng/mL), and insulin (10 μg/mL). The AhR reporter cell line HT29-Lucia™ (Invivogen, United States) was maintained in DMEM supplemented with 10% heat inactivated FBS, L-glutamine (2 mM), penicillin (100 IU/mL), streptomycin (100 μg/mL), 100 μg/mL Normocin™, and 100 μg/mL of the selective antibiotic Zeocin™. All cell lines were purchased from the American Type Culture Collection (ATCC), except for A2780 and A431 which were from the European Collection of Authenticated Cell Cultures (ECACC), and SJ-G2 cell line which was from Dr Mary Danks, St Jude Children’s Research hospital, Memphis, TN.
(§3) Cells in logarithmic growth were transferred to 96-well plates. Cytotoxicity was determined by plating cells in duplicate in 100 μL medium at a density of 2,500–4,000 cells/well in 96 well plates. On day 0, (24 h after plating) when the cells were in logarithmic growth 100 μL medium with or without the test agent was added to each well. After 72 h drug exposure growth inhibitory effects were evaluated using the MTT (3-[4,5-dimethylthiazol-2-yl]-2,5-diphenyltetrazolium bromide) assay with absorbance read at 540 nm. An eight-point dose response curve was produced, using MS Excel software. From these dose-response curves, the GI50 value was calculated, representing the drug concentration at which cell growth is 50% inhibited based on the difference between the optical density values on day 0 and those at the end of drug exposure ([Bradshaw et al., 2008]; [Zhang et al., 2009]). Each data point was conducted in duplicate and the mean ± S.E.M. calculated from four to five replicates (n = 4 or 5), which were performed on separate occasions and separate cell line passages. Where shown, significant test results were determined using T-test analysis at p < 0.01 and p < 0.05 with a two tail distribution.

The subject of another test is A431 (vulva/skin) cells. The test can be described thus: MTT growth inhibition assay (72 h). The class given is cell-based, human. As to conditions: Homo sapiens, A-431, A431, Skin (ER).
Source text: as §1, §2, §3
On the technique in general: Tetrazolium dyes change colour on reduction, which living cells bring about.

The next test has as its system H460 (lung) cells. The test can be described thus: MTT growth inhibition assay (72 h). The class given is cell-based, human. The conditions noted are these: Homo sapiens, NCI-H460, H460, Lung (ER).
Source text: as §1, §2, §3

Test [3] deals with MCF-7 breast cancer cells. The test can be described thus: MTT growth inhibition assay (72 h). The class given is cell-based, human. As to conditions: Homo sapiens, MCF7, MCF-7, Breast (ER).
Source text: as §1, §2, §3

A further test deals with BT20 breast cancer cells. Briefly: MTT growth inhibition assay (72 h). The class given is cell-based, human. As to conditions: Homo sapiens, BT-20, BT20, Breast (TN).
Source text: as §1, §2, §3

The subject of a further test is U87 (brain) cells. Briefly: MTT growth inhibition assay (72 h). The class given is cell-based, human. As to conditions: Homo sapiens, U87, Brain (GBM).
Source text: as §1, §2, §3

For the next test, the system named is MIA (pancreas) cells. The test can be described thus: MTT growth inhibition assay (72 h). The class given is cell-based, human. The conditions noted are these: Homo sapiens.
Source text: as §1, §2, §3

Test [4] relates to MDA-MB-231 breast cancer cells. Briefly: MTT growth inhibition assay (72 h). The class given is cell-based, human. The conditions noted are these: Homo sapiens, MDA-MB-231, Breast (TN).
Source text: as §1, §2, §3

The subject of a further test is A2780 (ovary) cells. The test can be described thus: MTT growth inhibition assay (72 h). The class given is cell-based, human. As to conditions: Homo sapiens.
Source text: as §1, §2, §3

Another test deals with SJ-G2 (brain) cells. The test can be described thus: MTT growth inhibition assay (72 h). The class given is cell-based, human. The conditions noted are these: Homo sapiens, SJ-G2, Brain (GBM).
Source text: as §1, §2, §3

For the next test, the system named is HT29 (colorectal) cells. The test can be described thus: MTT growth inhibition assay (72 h). The class given is cell-based, human. The conditions noted are these: Homo sapiens, HT-29, HT29, Colon.
Source text: as §1, §2, §3

In the next test the test system is BE2-C (neuronal) cells. Briefly: MTT growth inhibition assay (72 h). The class given is cell-based, human. As to conditions: Homo sapiens, BE(2)-C, Neuron.
Source text: as §1, §2, §3

A further test relates to Du145 (prostate) cells. The test can be described thus: MTT growth inhibition assay (72 h). The class given is cell-based, human. The conditions noted are these: Homo sapiens, DU-145.
Source text: as §1, §2, §3

For test [5], the system named is SKBR3 breast cancer cells. Briefly: MTT growth inhibition assay (72 h). The conditions noted are these: Homo sapiens, SK-BR-3, SKBR3, Breast (HER2). The class given is cell-based, human.
Source text: as §1, §2, §3

Test [6] relates to ZR-75-1 breast cancer cells. Briefly: MTT growth inhibition assay (72 h). The class given is cell-based, human. As to conditions: Homo sapiens, ZR-75-1, Breast (ER/PR).
Source text: as §1, §2, §3

For another test, the system named is T47D breast cancer cells. Briefly: MTT growth inhibition assay (72 h). The conditions noted are these: Homo sapiens, Breast (ER/PR). The class given is cell-based, human.
Source text: as §1, §2, §3

The subject of test [7] is BT474 breast cancer cells. Briefly: MTT growth inhibition assay (72 h). The class given is cell-based, human. The conditions noted are these: Homo sapiens, BT-474, BT474, Breast (ER/PR/HER2).
Source text: as §1, §2, §3

The subject of test [8] is MCF10A normal breast cells. The test can be described thus: MTT growth inhibition assay (72 h). The class given is cell-based, human. As to conditions: Homo sapiens, MCF-10A.
Source text: as §1, §2, §3

Where two headings read alike, the source gives them in different places.

Broadly, the GI50 is the concentration at which growth is held to half of that of the control.

Turning to `Nc1ccccc1N1C(=O)c2cccc3cccc(c23)C1=O` [Compound 2, 2-(2-aminophenyl)-1H-benzo[de]isoquinoline-1,3(2H)-dione], in test [1] (A431, MCF-7, T47D, ZR-75-1, SKBR3, MDA-MB-468, BT474, ref Gilbert et al., 2020, read-out: GI50 (range over cell lines)), the GI50 was 0.1 to 0.7 µM. Moreover, the “selective targeting of certain breast cancer cell lines compared with normal breast cells or other tumour types (fold)” value in test [1] (ref Gilbert et al., 2017, Gilbert et al., 2020) is recorded as “more than 500 fold”. Further, in test [2] (A431, T47D, ZR-75-1, SKBR3, MDA-MB-468 vs MCF10A, from GI50 values of ref Gilbert et al., 2020), the “increase in growth inhibition potency compared with MCF10A cells (fold, range over cell lines)” value lay in the range of 100 to 300 fold.
For `O=c1c2cccc3cccc(c32)c2nc3ccc(Cl)cc3n12` [Compound 3, 10-Chloro-7H-benzo[de]benzo[4,5]imidazo[2,1-a]isoquinolin-7-one], the GI50 in the test on A431 (vulva/skin) cells is 12 ± 1.8 µM; in the test with H460 (lung) cells, 7.2 ± 1.16 µM; in test [3], 7.9 ± 1.14 µM; in the test on BT20 breast cancer cells, 33 ± 4 µM; in the test on U87 (brain) cells it was 18 ± 3.8 µM; with MIA (pancreas) cells, > 50 µM. Further, the 50% growth inhibitory concentration (GI50) is 17 ± 6.1 µM in test [4]; 6.2 ± 0.46 µM with A2780 (ovary) cells; 33 ± 8.3 µM in the test on SJ-G2 (brain) cells; 21 ± 3.3 µM in the test with HT29 (colorectal) cells; 17 ± 4.3 µM in the test with BE2-C (neuronal) cells; 22 ± 3.1 µM with Du145 (prostate) cells. Besides, the GI50 in test [5] was 0.3 ± 0.12 µM; in [6], 0.48 ± 0.24 µM; in the test with T47D breast cancer cells, 11 ± 1.4 µM; in test [7] it was > 50 µM; in [8] it was 3.9 ± 0.21 µM; in test [2] (Homo sapiens, read-out: GI50 (range over cell lines and both compounds 3 and 4), ZR-75-1, SKBR3 and MDA-MB-468), 0.26 to 0.88 µM. For the same molecule, in test [1] (ref Baker et al., 2021a, Elson et al., 2023), the “selective in targeting certain breast cancer cell lines compared with normal cells or other tumour types (fold)” value was “up to 150 fold”.
